Source: patent US9827177B2, “Antiperspirant products with protein and antiperspirant salts” (Colgate-Palmolive Company, priority 2012, dated 2017)

Legend:
[1] = biological target: T1, Bovine Serum Albumin (BSA) (Bos taurus, UniProt P02769); assay: Flocculation of ZLC in the presence of protein (turbidity, pH); assay type: physicochemical; details: 5 hours at 37° C.
T1 construct: is a serum albumin protein derived from the blood of cattle; from tissue; host or cells: blood of cattle
Protocol: Turbidity and pH of solutions are measured 5 hours after the mixtures were placed in a 37° C. oven, and the results are shown in Table 3.

[2] = system: bacterial lawn on TSA plates; assay: Zone of inhibition test; assay type: cell-based; details: 20 μl on filter paper discs, 20 hours at 37° C.; compared with zinc oxide and lysine hydrochloride
Protocol: A zone of inhibition test is conducted on several materials: zinc oxide, lysine hydrochloride, and ZLC. The method involves making a lawn of freshly prepared bacterial culture on TSA (trypticase soy agar) plates. Sterile filter paper discs are seeded with 20 μl of test sample (supernatant or mixture). Sample-coated filter paper discs are air dried and applied onto the bacterial lawn on TSA plates. Plates are incubated for 20 hours at 37° C.

[3] = Precipitation of ZLC-BSA mixture solutions at adjusted pH; assay type: physicochemical; details: pure solution, pH 3-11
Description: The pH of the solutions is adjusted to 3, 4, 5, 6, 7, 8, 9, 10 and 11 to observe the formation of precipitation. Precipitate is formed in all solutions at pH ranging from 3 to 5. […] All solutions appear clear at pH 8. A small amount of precipitation is also found at pH 9 and 10. At pH 11, precipitate is formed in all solutions. […] The formation of precipitation in acid pH requires both ZLC and BSA to be present in solution.

[4] = Hydrolysis reaction: turbidity and pH of diluted ZLC solutions before and after aging; assay type: physicochemical; details: for pH after aging / turbidity after aging (NTU): aged 37° C. over 5 hours; for initial turbidity (NTU): before aging
Protocol: Hydrolysis reaction: A 185 mg/ml ZLC solution is prepared and diluted several-fold and aged in a 37° C. oven over 5 hours for turbidity studies. […] Turbidity of the solutions is measured using a nephelometer, results being given in nephelometric turbidity units (NTU).
The precipitates formed in the 8×, 16× and 32× diluted solutions are collected by centrifugation and identified as crystalline ZnO by PXRD. From the supernatant, a single crystal is grown and shown by X-ray diffraction to be Lysine Monohydrochloride Dihydrate (Lysine.HCl.2H2O).

[5] = sample 1: DI water, 0% BSA, ZLC about 0.98% w/w or 15 mg/ml
[6] = sample 2: 1% BSA, pH 7.2, ZLC about 0.96% w/w or 15 mg/ml
[7] = sample 3: 1% BSA, pH adjusted to 5.1, ZLC about 0.96% w/w or 15 mg/ml

T1 sequence (P02769 25-607): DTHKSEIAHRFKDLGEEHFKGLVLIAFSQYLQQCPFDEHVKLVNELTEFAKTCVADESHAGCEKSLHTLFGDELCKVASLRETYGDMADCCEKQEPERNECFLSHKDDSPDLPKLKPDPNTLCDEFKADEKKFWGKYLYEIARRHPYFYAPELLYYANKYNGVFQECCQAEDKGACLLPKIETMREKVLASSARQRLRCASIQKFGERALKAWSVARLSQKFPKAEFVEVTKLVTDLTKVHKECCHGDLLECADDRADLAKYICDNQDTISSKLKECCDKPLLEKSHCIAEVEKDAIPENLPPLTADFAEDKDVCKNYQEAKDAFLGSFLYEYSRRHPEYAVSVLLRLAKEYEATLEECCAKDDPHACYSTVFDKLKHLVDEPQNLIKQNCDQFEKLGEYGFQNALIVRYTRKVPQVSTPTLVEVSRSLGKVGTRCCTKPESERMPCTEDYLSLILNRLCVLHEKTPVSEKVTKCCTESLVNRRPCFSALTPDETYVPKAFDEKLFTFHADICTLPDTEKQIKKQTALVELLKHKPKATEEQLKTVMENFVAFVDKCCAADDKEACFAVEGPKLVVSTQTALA

NCCCCC(N)C(=O)O.NCCCCC(N)C(=O)O.O.O.[Cl-].[Cl-].[Zn+2] (stereo not drawn) [ZLC, zinc-lysine-HCl complex]
observation [1, 5]: becomes slightly cloudy | pH [1, 5]: 8 | Turbidity (NTU) [1, 6]: >1000 NTU | observation [1, 6]: a lot white precipitate | pH [1, 6]: 8.2 | Turbidity (NTU) [1, 7]: >1000 NTU | observation [1, 7]: a lot white precipitate | pH [1, 7]: 8 | antibacterial activity (zone of inhibition) [2]: better antibacterial activity than zinc oxide alone or lysine hydrochloride alone | formation of precipitation [3]: No precipitation | pH after aging ([4]; 5.78 mg/ml ZLC solution): 8 | turbidity after aging (NTU) ([4]; 5.78 mg/ml ZLC solution): >1000 NTU | pH after aging ([4]; 11.56 mg/ml ZLC solution): 7.8 | turbidity after aging (NTU) ([4]; 11.56 mg/ml ZLC solution): >1000 NTU | pH after aging ([4]; 23.125 mg/ml ZLC solution): 7.7 | initial turbidity (NTU) ([4]; 23.125 mg/ml ZLC solution): 0.7 NTU | pH after aging ([4]; 46.25 mg/ml ZLC solution): 7.4 | turbidity after aging (NTU) ([4]; 46.25 mg/ml ZLC solution): 2.8 NTU | initial turbidity (NTU) ([4]; 46.25 mg/ml ZLC solution): 1.5 NTU | pH after aging ([4]; 92.5 mg/ml ZLC solution): 7 | turbidity after aging (NTU) ([4]; 92.5 mg/ml ZLC solution): 2.6 NTU | initial turbidity (NTU) ([4]; 92.5 mg/ml ZLC solution): 2.8 NTU | observation on dilution of the solution ([4]; 185 mg/ml ZLC solution diluted several-fold): A white precipitate forms as the solution is diluted | pH after aging ([4]; 185 mg/ml ZLC solution): 6.8 | turbidity after aging (NTU) ([4]; 185 mg/ml ZLC solution): 4.1 NTU | initial turbidity (NTU) ([4]; 185 mg/ml ZLC solution): 4.7 NTU | stability of the complex upon dilution ([4]; 8×, 16× and 32× diluted solutions, precipitate identified as ZnO by PXRD): disassociates upon dilution, with consequent precipitation of zinc oxide
